Assay results: ChEMBL document CHEMBL1201862, “PubChem BioAssay data set” (2004)
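All cell lines were grown in 96-well plates and treated with compound for 48 hours. The concentration for 50% growth inhibition is given as GI50.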 Calls of active or inactive are those of the source. No stated cut-off is given here; in the data, active = GI50 up to about 1.1 µM and inactive = higher.

Assays:
Assay in all cases: NCI-60 cell line screen, 48 h
KM12 = tested on: KM12
MDA-MB-435 = tested on: MDA-MB-435
M14 = tested on: M14
SK-MEL-28 = tested on: SK-MEL-28
HOP-92 = tested on: HOP-92
Hs-578T = tested on: Hs-578T
A549 = tested on: A549
PC-3 = tested on: PC-3
RXF 393 = tested on: RXF 393
CAKI-1 = tested on: CAKI-1
UACC-62 = tested on: UACC-62
OVCAR-8 = tested on: OVCAR-8
SK-MEL-5 = tested on: SK-MEL-5
SR = tested on: SR
HCC 2998 = tested on: HCC 2998
MDA-N = tested on: MDA-N
NCI-H226 = tested on: NCI-H226
UO-31 = tested on: UO-31
NCI/ADR-RES = tested on: NCI/ADR-RES
A498 = tested on: A498
HL-60 = tested on: HL-60
SF-268 = tested on: SF-268
SF-295 = tested on: SF-295
NCI-H522 = tested on: NCI-H522
EKVX = tested on: EKVX
COLO 205 = tested on: COLO 205
OVCAR-5 = tested on: OVCAR-5
TK-10 = tested on: TK-10
SW-620 = tested on: SW-620
CCRF-CEM = tested on: CCRF-CEM
LOX IMVI = tested on: LOX IMVI
SN12C = tested on: SN12C
OVCAR-4 = tested on: OVCAR-4
786-0 = tested on: 786-0
HT-29 = tested on: HT-29
NCI-H460 = tested on: NCI-H460
IGROV-1 = tested on: IGROV-1
HCT-116 = tested on: HCT-116
ACHN = tested on: ACHN
DU-145 = tested on: DU-145
RPMI-8226 = tested on: RPMI-8226
Malme-3M = tested on: Malme-3M
MDA-MB-231 = tested on: MDA-MB-231
SNB-19 = tested on: SNB-19
UACC-257 = tested on: UACC-257
SF-539 = tested on: SF-539
T47D = tested on: T47D
OVCAR-3 = tested on: OVCAR-3
MCF7 = tested on: MCF7
SNB-75 = tested on: SNB-75
SK-OV-3 = tested on: SK-OV-3
K562 = tested on: K562
HOP-62 = tested on: HOP-62
NCI-H23 = tested on: NCI-H23
MOLT-4 = tested on: MOLT-4
U-251 = tested on: U-251
SK-MEL-2 = tested on: SK-MEL-2
HCT-15 = tested on: HCT-15

C/C(=C/CNc1ncnc2c1ncn2CCC(=O)O)CO
GI50 (KM12): > 100 µM (inactive) | GI50 (MDA-MB-435): > 100 µM (inactive) | GI50 (M14): > 100 µM (inactive) | GI50 (SK-MEL-28): > 100 µM (inactive) | GI50 (HOP-92): > 100 µM (inactive) | GI50 (Hs-578T): > 100 µM (inactive) | GI50 (A549): > 100 µM (inactive) | GI50 (PC-3): > 100 µM (inactive) | GI50 (RXF 393): > 100 µM (inactive) | GI50 (CAKI-1): > 100 µM (inactive) | GI50 (UACC-62): > 100 µM (inactive) | GI50 (OVCAR-8): > 100 µM (inactive) | GI50 (SK-MEL-5): > 100 µM (inactive) | GI50 (SR): > 100 µM (inactive) | GI50 (HCC 2998): > 100 µM (inactive) | GI50 (MDA-N): > 100 µM (inactive) | GI50 (NCI-H226): > 100 µM (inactive) | GI50 (UO-31): > 100 µM (inactive) | GI50 (NCI/ADR-RES): > 100 µM (inactive) | GI50 (A498): > 100 µM (inactive) | GI50 (HL-60): > 100 µM (inactive) | GI50 (SF-268): > 100 µM (inactive) | GI50 (SF-295): > 100 µM (inactive) | GI50 (NCI-H522): > 100 µM (inactive) | GI50 (EKVX): > 100 µM (inactive) | GI50 (COLO 205): > 100 µM (inactive) | GI50 (OVCAR-5): > 100 µM (inactive) | GI50 (TK-10): > 100 µM (inactive) | GI50 (SW-620): > 100 µM (inactive) | GI50 (CCRF-CEM): > 100 µM (inactive) | GI50 (LOX IMVI): > 100 µM (inactive) | GI50 (SN12C): > 100 µM (inactive) | GI50 (OVCAR-4): > 100 µM (inactive) | GI50 (786-0): > 100 µM (inactive) | GI50 (HT-29): > 100 µM (inactive) | GI50 (NCI-H460): > 100 µM (inactive) | GI50 (IGROV-1): > 100 µM (inactive) | GI50 (HCT-116): > 100 µM (inactive) | GI50 (ACHN): > 100 µM (inactive) | GI50 (DU-145): > 100 µM (inactive) | GI50 (RPMI-8226): > 100 µM (inactive) | GI50 (Malme-3M): > 100 µM (inactive) | GI50 (MDA-MB-231): > 100 µM (inactive) | GI50 (SNB-19): > 100 µM (inactive) | GI50 (UACC-257): > 100 µM (inactive) | GI50 (SF-539): > 100 µM (inactive) | GI50 (T47D): > 100 µM (inactive) | GI50 (OVCAR-3): > 100 µM (inactive) | GI50 (MCF7): > 100 µM (inactive) | GI50 (SNB-75): > 100 µM (inactive) | GI50 (SK-OV-3): > 100 µM (inactive) | GI50 (K562): > 100 µM (inactive) | GI50 (HOP-62): > 100 µM (inactive) | GI50 (NCI-H23): > 100 µM (inactive) | GI50 (MOLT-4): > 100 µM (inactive)

Cc1nc(SCC(N)=O)c2sc(=S)n(-c3ccccc3)c2n1
GI50 (KM12): > 10 µM (inactive) | GI50 (MDA-MB-435): > 10 µM (inactive) | GI50 (M14): > 10 µM (inactive) | GI50 (SK-MEL-28): > 10 µM (inactive) | GI50 (HOP-92): > 10 µM (inactive) | GI50 (Hs-578T): > 10 µM (inactive) | GI50 (A549): > 10 µM (inactive) | GI50 (PC-3): > 10 µM (inactive) | GI50 (U-251): > 10 µM (inactive) | GI50 (RXF 393): > 10 µM (inactive) | GI50 (CAKI-1): > 10 µM (inactive) | GI50 (UACC-62): > 10 µM (inactive) | GI50 (OVCAR-8): > 10 µM (inactive) | GI50 (SK-MEL-5): > 10 µM (inactive) | GI50 (SR): > 10 µM (inactive) | GI50 (HCC 2998): > 10 µM (inactive) | GI50 (MDA-N): > 10 µM (inactive) | GI50 (NCI-H226): > 10 µM (inactive) | GI50 (NCI/ADR-RES): > 10 µM (inactive) | GI50 (A498): > 10 µM (inactive) | GI50 (HL-60): > 10 µM (inactive) | GI50 (SF-268): > 10 µM (inactive) | GI50 (SF-295): > 10 µM (inactive) | GI50 (NCI-H522): > 10 µM (inactive) | GI50 (EKVX): > 10 µM (inactive) | GI50 (COLO 205): > 10 µM (inactive) | GI50 (OVCAR-5): > 10 µM (inactive) | GI50 (TK-10): > 10 µM (inactive) | GI50 (SW-620): > 10 µM (inactive) | GI50 (CCRF-CEM): > 10 µM (inactive) | GI50 (SK-MEL-2): > 10 µM (inactive) | GI50 (LOX IMVI): > 10 µM (inactive) | GI50 (SN12C): > 10 µM (inactive) | GI50 (OVCAR-4): > 10 µM (inactive) | GI50 (786-0): > 10 µM (inactive) | GI50 (HT-29): > 10 µM (inactive) | GI50 (NCI-H460): > 10 µM (inactive) | GI50 (IGROV-1): > 10 µM (inactive) | GI50 (HCT-116): > 10 µM (inactive) | GI50 (HCT-15): > 10 µM | GI50 (ACHN): > 10 µM (inactive) | GI50 (DU-145): > 10 µM (inactive) | GI50 (RPMI-8226): > 10 µM (inactive) | GI50 (Malme-3M): > 10 µM (inactive) | GI50 (MDA-MB-231): > 10 µM (inactive) | GI50 (SNB-19): > 10 µM (inactive) | GI50 (UACC-257): > 10 µM (inactive) | GI50 (SF-539): > 10 µM (inactive) | GI50 (T47D): > 10 µM (inactive) | GI50 (OVCAR-3): > 10 µM (inactive) | GI50 (MCF7): > 10 µM (inactive) | GI50 (SNB-75): > 10 µM (inactive) | GI50 (SK-OV-3): > 10 µM (inactive) | GI50 (K562): > 10 µM (inactive) | GI50 (HOP-62): > 10 µM (inactive) | GI50 (NCI-H23): > 10 µM (inactive) | GI50 (MOLT-4): > 10 µM (inactive)

Cc1cn(C2CC(N/C(=N/C#N)NCC3OC(n4cnc5c(N)ncnc54)CC3O)C(CO)O2)c(=O)[nH]c1=O (centres undefined)
GI50 (KM12): > 100 µM (inactive) | GI50 (MDA-MB-435): > 100 µM (inactive) | GI50 (M14): > 100 µM (inactive) | GI50 (SK-MEL-28): > 100 µM (inactive) | GI50 (HOP-92): > 100 µM (inactive) | GI50 (Hs-578T): > 100 µM (inactive) | GI50 (A549): > 100 µM (inactive) | GI50 (PC-3): > 100 µM (inactive) | GI50 (U-251): > 100 µM (inactive) | GI50 (RXF 393): > 100 µM (inactive) | GI50 (CAKI-1): > 100 µM (inactive) | GI50 (UACC-62): > 100 µM (inactive) | GI50 (OVCAR-8): > 100 µM (inactive) | GI50 (SK-MEL-5): > 100 µM (inactive) | GI50 (SR): > 100 µM (inactive) | GI50 (HCC 2998): > 100 µM (inactive) | GI50 (MDA-N): > 100 µM (inactive) | GI50 (NCI-H226): > 100 µM (inactive) | GI50 (UO-31): > 100 µM (inactive) | GI50 (NCI/ADR-RES): > 100 µM (inactive) | GI50 (A498): > 100 µM (inactive) | GI50 (HL-60): 77.6 µM (inactive) | GI50 (SF-268): > 100 µM (inactive) | GI50 (SF-295): > 100 µM (inactive) | GI50 (NCI-H522): > 100 µM (inactive) | GI50 (EKVX): > 100 µM (inactive) | GI50 (COLO 205): > 100 µM (inactive) | GI50 (OVCAR-5): > 100 µM (inactive) | GI50 (TK-10): > 100 µM (inactive) | GI50 (SW-620): > 100 µM (inactive) | GI50 (CCRF-CEM): > 100 µM (inactive) | GI50 (SK-MEL-2): > 100 µM (inactive) | GI50 (LOX IMVI): > 100 µM (inactive) | GI50 (SN12C): > 100 µM (inactive) | GI50 (OVCAR-4): > 100 µM (inactive) | GI50 (786-0): > 100 µM (inactive) | GI50 (HT-29): > 100 µM (inactive) | GI50 (NCI-H460): > 100 µM (inactive) | GI50 (IGROV-1): > 100 µM (inactive) | GI50 (HCT-116): > 100 µM (inactive) | GI50 (HCT-15): > 100 µM | GI50 (ACHN): > 100 µM (inactive) | GI50 (DU-145): > 100 µM (inactive) | GI50 (Malme-3M): > 100 µM (inactive) | GI50 (MDA-MB-231): > 100 µM (inactive) | GI50 (SNB-19): > 100 µM (inactive) | GI50 (UACC-257): > 100 µM (inactive) | GI50 (SF-539): > 100 µM (inactive) | GI50 (T47D): > 100 µM (inactive) | GI50 (OVCAR-3): > 100 µM (inactive) | GI50 (MCF7): 1.04 µM (active) | GI50 (SNB-75): > 100 µM (inactive) | GI50 (SK-OV-3): > 100 µM (inactive) | GI50 (K562): > 100 µM (inactive) | GI50 (HOP-62): > 100 µM (inactive) | GI50 (NCI-H23): > 100 µM (inactive) | GI50 (MOLT-4): > 100 µM (inactive)
